In brackets after ≈: the same amount, converted by molar mass.
Key:
Assay in all cases: Antibacterial activity in vitro, MIC by broth microdilution
E. faecalis Enfa_29212 = type: cell-based; conditions: Table 5, Strain ID D: E. faecalis Enfa_29212; unit assumed
Description: (§1) Representative compounds of the present invention were assayed in vitro for antibacterial activity against the bacterial isolates listed in Table 1 as follows:
(§2) The bacterial isolates listed in Table 1 were cultivated from −70° C. frozen stocks by two consecutive overnight passages (P1, P2) at 35° C. on 5% blood agar (Remel, Lenexa, Kans.). Chocolate agar (Remel) is used for Haemophilus influenzae. H. influenzae and Streptococcus pneumoniae are incubated in 5-10% CO2.
(§3) To determine the amount of solvent to be used to give the desired final concentration, the formula “weight obtained in mg/final concentration in mg/mL” will be used. It will give the amount of solvent in mL needed to be added to give the desired concentration. For example, if 2.5 mg/mL is the desired concentration and the weight of compound is 13.7 mg, then the amount of solvent to be added is 3.94 mL (13.7 mg/2.5 mg/mL=3.94 mLs). Methanol is used as the solvent to dissolve the test compounds. Further dilution of stock is done in sterile, deioinzed water. Drug stocks are kept frozen at −70° C., protected from light.
(§4) MICs are determined by the broth microdilution method in accordance with the NCCLS guidelines. In brief, organism suspensions are adjusted to a 0.5 McFarland standard to yield a final inoculum between 3×10^5 and 7×10^5 CFU/mL. Drug dilutions and inocula are made in sterile, cation adjusted Mueller-Hinton Broth (CAMHB) (Remel) for all but S. pneumoniae [CAMHB with 2-5% lysed horse blood (Remel)] and H. influenzae [Haemophilus Test Medium (Remel)]. An inoculum volume of 100 μl is added to wells containing 100 μl of broth with 2-fold serial dilutions of drug. All inoculated microdilution trays are incubated in ambient air at 35° C. for 18-24 hours, except for S. pneumoniae, and H. influenzae (both at 5-10% CO2).
(§5) Following appropriate incubation, the MIC is determined and the MIC is defined as the lowest concentration of the drug that prevented visible growth.

S. aureus Stau_29213 = type: cell-based; conditions: Table 5, Strain ID A: S. aureus Stau_29213; unit assumed
Description: as §1, §2, §3, §4, §5

[1] = tested on: S. epidermidis Step_14990; type: cell-based; conditions: Table 5, Strain ID B: S. epidermidis Step_14990; unit assumed
Description: as §1, §2, §3, §4, §5

[2] = tested on: S. epidermidis Step_f50654 Pen S; type: cell-based; conditions: Table 5, Strain ID C: S. epidermidis Step_f50654; unit assumed
Description: as §1, §2, §3, §4, §5

S. pyogenes Stpy_8668 = type: cell-based; conditions: Table 5, Strain ID E: S. pyogenes Stpy_8668
Description: as §1, §2, §3, §4, §5

[3] = tested on: S. pneumoniae Stpn_280-962 Pen S; type: cell-based, Streptococcus pneumoniae; conditions: Table 5, Strain ID H: S. pneumoniae Stpn_280-962
Description: as §1, §2, §3, §4, §5

[4] = tested on: S. pneumoniae Stpn_297-749 Pen R; type: cell-based, Streptococcus pneumoniae; conditions: Table 5, Strain ID G: S. pneumoniae Stpn_297-749
Description: as §1, §2, §3, §4, §5

S. pneumoniae Stpn_49619 = type: cell-based, Streptococcus pneumoniae; conditions: Table 5, Strain ID F: S. pneumoniae Stpn_49619
Description: as §1, §2, §3, §4, §5

[5] = tested on: S. pneumoniae Stpn_Erm 6849; type: cell-based, Streptococcus pneumoniae; conditions: Table 5, Strain ID I: S. pneumoniae Stpn_Erm 6849
Description: as §1, §2, §3, §4, §5

[6] = tested on: S. pneumoniae Stpn_Erm S 4297; type: cell-based, Streptococcus pneumoniae; conditions: Table 5, Strain ID J: S. pneumoniae Stpn_Erm S 4297
Description: as §1, §2, §3, §4, §5

[7] = tested on: S. pneumoniae Stpn_Mef 5654; type: cell-based, Streptococcus pneumoniae; conditions: Table 5, Strain ID K: S. pneumoniae Stpn_Mef 5654; unit assumed
Description: as §1, §2, §3, §4, §5

[8] = tested on: S. pneumoniae Stpn_Mef S 3427; type: cell-based, Streptococcus pneumoniae; conditions: Table 5, Strain ID L: S. pneumoniae Stpn_Mef S 3427
Description: as §1, §2, §3, §4, §5

H. influenzae Hain_49247 = type: cell-based, Haemophilus influenzae; conditions: Table 5, Strain ID M: H. influenzae Hain_49247; unit assumed
Description: as §1, §2, §3, §4, §5

With `CC[C@H]1OC(=O)[C@H](C)C(=O)[C@H](C)[C@@H](OC2O[C@H](C)C[C@H](N(C)C)[C@H]2O)[C@@](C)(OC)C[C@@H](C)C(=O)[C@H](C)[C@H]2N(CCCCc3ccc4ccccc4n3)C(=O)O[C@]12CC` (stereo partly drawn) [Example 18, (3aS,4R,7R,9R,10R,11S,13R,15R,15aR)-3a,4-diethyl-11-methoxy-7,9,11,13,15-pentamethyl-2,6,8,14-tetraoxo-1-(4-quinolin-2-ylbutyl)tetradecahydro-2H-oxacyclotetradecino[4,3-d][1,3]oxazol-10-yl 3,4,6-trideoxy-3-(dimethylamino)-D-xylo-hexopyranoside] as the compound, how does the MIC (E. faecalis Enfa_29212) read?
The MIC was 0.1 µg/mL (≈ 0.123 µM).

What about the MIC (S. aureus Stau_29213) of the same compound?
The MIC was 0.78 µg/mL (≈ 0.963 µM).

And the MIC [1]?
The MIC was 0.4 µg/mL (≈ 0.494 µM).

What about the MIC [2] of the same compound?
Its MIC is 0.78 µg/mL (≈ 0.963 µM).

And the MIC (S. pyogenes Stpy_8668; unit assumed)?
The MIC was 0.1 µg/mL (≈ 0.123 µM).

And the MIC [3]?
Its MIC is “≦0.05”.

And the MIC [4]?
Its MIC is “≦0.05”.

And the MIC (S. pneumoniae Stpn_49619)?
Its MIC is “≦0.05”.

And the MIC ([5]; unit assumed)?
The MIC was 3.13 µg/mL (≈ 3.86 µM).

What about the MIC ([6]; unit assumed) of the same compound?
Its MIC is 0.2 µg/mL (≈ 0.247 µM).

What about the MIC [7] of the same compound?
Its MIC is 0.4 µg/mL (≈ 0.494 µM).

And the MIC [8]?
The MIC was “≦0.05”.

And the MIC (H. influenzae Hain_49247)?
The MIC was 3.13 µg/mL (≈ 3.86 µM).

How did the MIC (E. faecalis Enfa_29212) turn out when `CC[C@H]1OC(=O)[C@@](C)(F)C(=O)[C@H](C)[C@@H](OC2O[C@H](C)C[C@H](N(C)C)[C@H]2O)[C@@](C)(OC)C[C@@H](C)C(=O)[C@H](C)[C@H]2N(CCCCc3ccc4ccccc4n3)C(=O)O[C@]12CC` (stereo partly drawn) [Example 19, (3aS,4R,7S,9R,10R,11S,13R,15R,15aR)-3a,4-diethyl-7-fluoro-11-methoxy-7,9,11,13,15-pentamethyl-2,6,8,14-tetraoxo-1-(4-quinolin-2-ylbutyl)tetradecahydro-2H-oxacyclotetradecino[4,3-d][1,3]oxazol-10-yl 3,4,6-trideoxy-3-(dimethylamino)-D-xylo-hexopyranoside] was run?
The MIC was 0.4 µg/mL (≈ 0.483 µM).

What about the MIC (S. aureus Stau_29213) of the same compound?
Its MIC is 0.4 µg/mL (≈ 0.483 µM).

And the MIC [1]?
The MIC was 0.4 µg/mL (≈ 0.483 µM).

What about the MIC [2] of the same compound?
Its MIC is 0.4 µg/mL (≈ 0.483 µM).

And the MIC (S. pyogenes Stpy_8668; unit assumed)?
The MIC was 0.1 µg/mL (≈ 0.121 µM).

What about the MIC [3] of the same compound?
The MIC was “≦0.05”.

And the MIC [4]?
The MIC was “≦0.05”.

What about the MIC (S. pneumoniae Stpn_49619) of the same compound?
Its MIC is “≦0.05”.

What about the MIC ([5]; unit assumed) of the same compound?
The MIC was 0.78 µg/mL (≈ 0.942 µM).

What about the MIC ([6]; unit assumed) of the same compound?
Its MIC is 0.2 µg/mL (≈ 0.242 µM).

What about the MIC [7] of the same compound?
Its MIC is 0.4 µg/mL (≈ 0.483 µM).

And the MIC ([8]; unit assumed)?
The MIC was 0.1 µg/mL (≈ 0.121 µM).

And the MIC (H. influenzae Hain_49247)?
Its MIC is 6.25 µg/mL (≈ 7.55 µM).

How did the MIC (E. faecalis Enfa_29212) turn out when `CC[C@H]1OC(=O)[C@H](C)C(=O)[C@H](C)[C@@H](OC2O[C@H](C)C[C@H](N(C)C)[C@H]2O)[C@@](C)(OC)C[C@@H](C)C(=O)[C@H](C)[C@H]2N(CCCCn3cc(-c4cccnc4)nc3C)C(=O)O[C@]12CC` (stereo partly drawn) [Example 20, (3aS,4R,7R,9R,10R,11S,13R,15R,15aR)-3a,4-diethyl-11-methoxy-7,9,11,13,15-pentamethyl-1-[4-(2-methyl-4-pyridin-3-yl-1H-imidazol-1-yl)butyl]-2,6,8,14-tetraoxotetradecahydro-2H-oxacyclotetradecino[4,3-d][1,3]oxazol-10-yl 3,4,6-trideoxy-3-(dimethylamino)-D-xylo-hexopyranoside] was run?
The MIC was 0.1 µg/mL (≈ 0.119 µM).

What about the MIC (S. aureus Stau_29213) of the same compound?
The MIC was 0.2 µg/mL (≈ 0.238 µM).

What about the MIC [1] of the same compound?
Its MIC is 0.1 µg/mL (≈ 0.119 µM).

What about the MIC [2] of the same compound?
Its MIC is 0.2 µg/mL (≈ 0.238 µM).

And the MIC (S. pyogenes Stpy_8668)?
The MIC was “≦0.05”.

And the MIC [3]?
Its MIC is “≦0.05”.

And the MIC [4]?
Its MIC is “≦0.05”.

And the MIC (S. pneumoniae Stpn_49619)?
Its MIC is “≦0.05”.

What about the MIC [5] of the same compound?
The MIC was “≦0.5”.

What about the MIC [6] of the same compound?
Its MIC is “≦0.05”.

And the MIC [7]?
Its MIC is 0.4 µg/mL (≈ 0.476 µM).

What about the MIC [8] of the same compound?
Its MIC is “≦0.05”.

What about the MIC (H. influenzae Hain_49247) of the same compound?
Its MIC is 6.25 µg/mL (≈ 7.44 µM).

What does the source list for `CC[C@H]1OC(=O)[C@H](C)C(=O)[C@H](C)[C@@H](OC2O[C@H](C)C[C@H](N(C)C)[C@H]2O)[C@@](C)(OC)C[C@@H](C)C(=O)[C@H](C)[C@H]2N(CCCCn3cnc(-c4cccnc4)c3C)C(=O)O[C@]12CC` (stereo partly drawn) [Example 21, (3aS,4R,7R,9R,10R,11S,13R,15R,15aR)-3a,4-diethyl-11-methoxy-7,9,11,13,15-pentamethyl-1-[4-(5-methyl-4-pyridin-3-yl-1H-imidazol-1-yl)butyl]-2,6,8,14-tetraoxotetradecahydro-2H-oxacyclotetradecino[4,3-d][1,3]oxazol-10-yl 3,4,6-trideoxy-3-(dimethylamino)-D-xylo-hexopyranoside]?
MIC (E. faecalis Enfa_29212): 0.1 µg/mL (≈ 0.119 µM); MIC (S. aureus Stau_29213): 0.4 µg/mL (≈ 0.476 µM); MIC [1]: 0.4 µg/mL (≈ 0.476 µM); MIC [2]: 0.4 µg/mL (≈ 0.476 µM); MIC (S. pyogenes Stpy_8668): ≦0.05; MIC [3]: ≦0.05; MIC [4]: ≦0.05; MIC (S. pneumoniae Stpn_49619): ≦0.05; MIC ([5]; unit assumed): 0.2 µg/mL (≈ 0.238 µM); MIC ([6]; unit assumed): 0.1 µg/mL (≈ 0.119 µM); MIC [7]: 0.78 µg/mL (≈ 0.928 µM); MIC ([8]; unit assumed): 0.1 µg/mL (≈ 0.119 µM); MIC (H. influenzae Hain_49247): 12.5 µg/mL (≈ 14.9 µM)

From US6756359B2, “C12 modified erythromycin macrolides and ketolides having antibacterial activity” (Chiron Corporation, priority 2001, dated 2004)
